# Molecular target: DNA polymerase III subunit tau (Escherichia coli, UniProt P06710)
# Assay: colorimetric ATPase assay
# Conditions: pH 7.5; 37 °C
# DNA polymerase III subunit tau, sequence (P06710 whole entry): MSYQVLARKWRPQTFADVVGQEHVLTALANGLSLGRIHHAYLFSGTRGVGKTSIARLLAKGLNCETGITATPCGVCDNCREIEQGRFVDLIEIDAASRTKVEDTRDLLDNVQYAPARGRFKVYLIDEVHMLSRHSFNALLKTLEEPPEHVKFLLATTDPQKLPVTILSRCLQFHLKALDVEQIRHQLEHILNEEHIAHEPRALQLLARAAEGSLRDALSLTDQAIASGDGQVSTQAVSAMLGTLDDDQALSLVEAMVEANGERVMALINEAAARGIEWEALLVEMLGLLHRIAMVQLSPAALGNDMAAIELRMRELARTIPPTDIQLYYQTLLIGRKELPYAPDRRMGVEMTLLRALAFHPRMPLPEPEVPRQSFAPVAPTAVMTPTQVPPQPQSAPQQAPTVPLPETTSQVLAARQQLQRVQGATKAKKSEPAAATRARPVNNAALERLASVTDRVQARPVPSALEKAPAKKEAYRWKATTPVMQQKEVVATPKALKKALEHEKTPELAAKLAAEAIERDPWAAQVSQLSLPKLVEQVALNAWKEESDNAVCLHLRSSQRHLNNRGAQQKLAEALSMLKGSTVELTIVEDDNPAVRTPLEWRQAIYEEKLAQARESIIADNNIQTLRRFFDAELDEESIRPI
row,SMILES,Ki
1,O=[N+]([O-])c1cccc2c1ccn2[C@H]1C[C@H](O)[C@@H](COP(=O)(O)OP(=O)(O)OP(=O)(O)O)O1 [4-nitro-indolyl-2'-deoxyriboside triphosphate],11.1 µM
2,Nc1ccc2c(ccn2[C@H]2C[C@H](O)[C@@H](COP(=O)(O)OP(=O)(O)OP(=O)(O)O)O2)c1 [5-amino-indolyl-2'-deoxyriboside triphosphate],45 µM
3,O=P(O)(O)OP(=O)(O)OP(=O)(O)OC[C@H]1O[C@@H](n2ccc3cc(C4=CCCCC4)ccc32)C[C@@H]1O [5-cyclohexene-indolyl-2'-deoxyriboside triphosphate],11.8 µM
4,O=P(O)(O)OP(=O)(O)OP(=O)(O)OC[C@H]1O[C@@H](n2ccc3cc(C4CCCCC4)ccc32)C[C@@H]1O [5-cyclohexyl-indolyl-2'-deoxyriboside triphosphate],24 µM
5,CCc1ccc2c(ccn2[C@H]2C[C@H](O)[C@@H](COP(=O)(O)OP(=O)(O)OP(=O)(O)O)O2)c1 [5-ethyl-indolyl-2'-deoxyriboside triphosphate],9 µM
6,C=Cc1ccc2c(ccn2[C@H]2C[C@H](O)[C@@H](COP(=O)(O)OP(=O)(O)OP(=O)(O)O)O2)c1 [5-ethylene-indolyl-2'-deoxyriboside triphosphate],30 µM
7,O=P(O)(O)OP(=O)(O)OP(=O)(O)OC[C@H]1O[C@@H](n2ccc3cc(F)ccc32)C[C@@H]1O [5-fluoro-indolyl-2'-deoxyriboside triphosphate],34 µM
8,O=[N+]([O-])c1ccc2c(ccn2[C@H]2C[C@H](O)[C@@H](COP(=O)(O)OP(=O)(O)OP(=O)(O)O)O2)c1 [5-nitro-indolyl-2'-deoxyriboside triphosphate],21.7 µM
9,O=P(O)(O)OP(=O)(O)OP(=O)(O)OC[C@H]1O[C@@H](n2ccc3cc(-c4ccccc4)ccc32)C[C@@H]1O [5-phenyl-indolyl-2'-deoxyriboside triphosphate],7.5 µM
10,O=[N+]([O-])c1ccc2ccn([C@H]3C[C@H](O)[C@@H](COP(=O)(O)OP(=O)(O)OP(=O)(O)O)O3)c2c1 [6-nitro-indolyl-2'-deoxyriboside triphosphate],8.1 µM
11,Nc1ncnc2c1ncn2C1OC(COP(=O)(O)OP(=O)(O)OP(O)(O)=S)[C@@H](O)[C@H]1O (stereo partly specified) [ATP{gamma}S],13 µM

# Molecular target: Complex of Sliding-clamp-loader large subunit [R175L] and Sliding-clamp-loader small subunit (Enterobacteria phage T4, UniProt P04526, R175L)
# Sequence (P04526 as listed by the source R175L): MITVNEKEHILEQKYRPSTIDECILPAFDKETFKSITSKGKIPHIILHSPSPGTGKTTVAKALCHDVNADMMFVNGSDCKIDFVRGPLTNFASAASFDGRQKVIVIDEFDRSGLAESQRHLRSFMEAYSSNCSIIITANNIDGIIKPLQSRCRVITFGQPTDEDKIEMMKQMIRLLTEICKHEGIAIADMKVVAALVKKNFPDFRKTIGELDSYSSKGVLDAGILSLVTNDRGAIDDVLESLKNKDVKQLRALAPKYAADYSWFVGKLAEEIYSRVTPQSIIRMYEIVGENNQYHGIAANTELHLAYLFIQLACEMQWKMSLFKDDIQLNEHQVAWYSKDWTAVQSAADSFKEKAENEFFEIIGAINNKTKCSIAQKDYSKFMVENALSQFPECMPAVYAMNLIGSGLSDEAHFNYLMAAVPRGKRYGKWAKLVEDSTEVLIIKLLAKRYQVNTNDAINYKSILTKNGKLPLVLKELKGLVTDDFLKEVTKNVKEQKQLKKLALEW
# Assay: colorimetric ATPase assay
# Conditions: pH 7.5; 25 °C
# Protocol: (§1) ATPase assay contained 10 mM Mg2+, 1uM 13/20 DNA, 500uM (r)NTP or (d)NTP, 500 nM gp45, and 500 nM gp44/62 in T4 buffer. ATPase activity was measured by monitoring the release of Pi using a malachite green assay (31) or via the hydrolysis of [gamma-32P]-ATP.
row,SMILES,Ki
1,O=[N+]([O-])c1cccc2c1ccn2[C@H]1C[C@H](O)[C@@H](COP(=O)(O)OP(=O)(O)OP(=O)(O)O)O1 [4-nitro-indolyl-2'-deoxyriboside triphosphate],41.6 µM
2,CCc1ccc2c(ccn2[C@H]2C[C@H](O)[C@@H](COP(=O)(O)OP(=O)(O)OP(=O)(O)O)O2)c1 [5-ethyl-indolyl-2'-deoxyriboside triphosphate],11 µM
3,C=Cc1ccc2c(ccn2[C@H]2C[C@H](O)[C@@H](COP(=O)(O)OP(=O)(O)OP(=O)(O)O)O2)c1 [5-ethylene-indolyl-2'-deoxyriboside triphosphate],34 µM
4,O=[N+]([O-])c1ccc2ccn([C@H]3C[C@H](O)[C@@H](COP(=O)(O)OP(=O)(O)OP(=O)(O)O)O3)c2c1 [6-nitro-indolyl-2'-deoxyriboside triphosphate],5 µM
5,Nc1ncnc2c1ncn2C1OC(COP(=O)(O)OP(=O)(O)OP(O)(O)=S)[C@@H](O)[C@H]1O (stereo partly specified) [ATP{gamma}S],33.2 µM

# Molecular target: Complex of Sliding-clamp-loader large subunit [R175K] and Sliding-clamp-loader small subunit (Enterobacteria phage T4, UniProt P04526, R175K)
# Sequence (P04526 as listed by the source R175K): as the sequence (P04526 as listed by the source R175L) above, with L175K counted along it
# Assay: colorimetric ATPase assay
# Conditions: pH 7.5; 25 °C
# Protocol: as §1
row,SMILES,Ki
1,O=[N+]([O-])c1cccc2c1ccn2[C@H]1C[C@H](O)[C@@H](COP(=O)(O)OP(=O)(O)OP(=O)(O)O)O1 [4-nitro-indolyl-2'-deoxyriboside triphosphate],30.2 µM
2,CCc1ccc2c(ccn2[C@H]2C[C@H](O)[C@@H](COP(=O)(O)OP(=O)(O)OP(=O)(O)O)O2)c1 [5-ethyl-indolyl-2'-deoxyriboside triphosphate],25.2 µM
3,C=Cc1ccc2c(ccn2[C@H]2C[C@H](O)[C@@H](COP(=O)(O)OP(=O)(O)OP(=O)(O)O)O2)c1 [5-ethylene-indolyl-2'-deoxyriboside triphosphate],26.2 µM
4,O=[N+]([O-])c1ccc2ccn([C@H]3C[C@H](O)[C@@H](COP(=O)(O)OP(=O)(O)OP(=O)(O)O)O3)c2c1 [6-nitro-indolyl-2'-deoxyriboside triphosphate],9.1 µM
5,Nc1ncnc2c1ncn2C1OC(COP(=O)(O)OP(=O)(O)OP(O)(O)=S)[C@@H](O)[C@H]1O (stereo partly specified) [ATP{gamma}S],14 µM

# Molecular target: T1, Sliding-clamp-loader large/small subunit (Enterobacteria phage T4, UniProt P04526+P04527)
# T1 sequence (P04526 whole entry): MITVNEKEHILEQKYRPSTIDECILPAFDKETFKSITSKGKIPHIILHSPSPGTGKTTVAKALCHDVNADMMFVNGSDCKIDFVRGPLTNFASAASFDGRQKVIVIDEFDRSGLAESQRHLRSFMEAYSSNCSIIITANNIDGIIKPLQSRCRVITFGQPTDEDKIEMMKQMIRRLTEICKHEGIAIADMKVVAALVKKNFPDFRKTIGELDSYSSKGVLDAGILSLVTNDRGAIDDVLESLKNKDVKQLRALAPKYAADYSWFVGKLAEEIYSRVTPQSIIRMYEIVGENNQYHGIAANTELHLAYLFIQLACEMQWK
# T1 sequence (P04527 whole entry): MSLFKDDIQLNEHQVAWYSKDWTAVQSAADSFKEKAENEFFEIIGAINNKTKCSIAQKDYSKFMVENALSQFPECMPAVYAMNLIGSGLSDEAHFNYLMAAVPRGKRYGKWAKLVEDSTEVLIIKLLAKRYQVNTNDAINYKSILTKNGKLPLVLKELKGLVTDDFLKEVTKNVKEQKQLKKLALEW
# Assay: colorimetric ATPase assay
# Conditions: pH 7.5; 25 °C
# Protocol: as §1
row,SMILES,Ki
1,O=[N+]([O-])c1cccc2c1ccn2[C@H]1C[C@H](O)[C@@H](COP(=O)(O)OP(=O)(O)OP(=O)(O)O)O1 [4-nitro-indolyl-2'-deoxyriboside triphosphate],34.2 µM
2,Nc1ccc2c(ccn2[C@H]2C[C@H](O)[C@@H](COP(=O)(O)OP(=O)(O)OP(=O)(O)O)O2)c1 [5-amino-indolyl-2'-deoxyriboside triphosphate],> 200 µM
3,O=P(O)(O)OP(=O)(O)OP(=O)(O)OC[C@H]1O[C@@H](n2ccc3cc(C4=CCCCC4)ccc32)C[C@@H]1O [5-cyclohexene-indolyl-2'-deoxyriboside triphosphate],10 µM
4,O=P(O)(O)OP(=O)(O)OP(=O)(O)OC[C@H]1O[C@@H](n2ccc3cc(C4CCCCC4)ccc32)C[C@@H]1O [5-cyclohexyl-indolyl-2'-deoxyriboside triphosphate],47.5 µM
5,CCc1ccc2c(ccn2[C@H]2C[C@H](O)[C@@H](COP(=O)(O)OP(=O)(O)OP(=O)(O)O)O2)c1 [5-ethyl-indolyl-2'-deoxyriboside triphosphate],81.5 µM
6,C=Cc1ccc2c(ccn2[C@H]2C[C@H](O)[C@@H](COP(=O)(O)OP(=O)(O)OP(=O)(O)O)O2)c1 [5-ethylene-indolyl-2'-deoxyriboside triphosphate],> 200 µM
7,O=P(O)(O)OP(=O)(O)OP(=O)(O)OC[C@H]1O[C@@H](n2ccc3cc(F)ccc32)C[C@@H]1O [5-fluoro-indolyl-2'-deoxyriboside triphosphate],> 200 µM
8,O=P(O)(O)OP(=O)(O)OP(=O)(O)OC[C@H]1O[C@@H](n2ccc3cc(-c4ccccc4)ccc32)C[C@@H]1O [5-phenyl-indolyl-2'-deoxyriboside triphosphate],42 µM
9,O=[N+]([O-])c1ccc2ccn([C@H]3C[C@H](O)[C@@H](COP(=O)(O)OP(=O)(O)OP(=O)(O)O)O3)c2c1 [6-nitro-indolyl-2'-deoxyriboside triphosphate],5.1 µM
10,Nc1ncnc2c1ncn2C1OC(COP(=O)(O)OP(=O)(O)OP(O)(O)=S)[C@@H](O)[C@H]1O (stereo partly specified) [ATP{gamma}S],28.9 µM

# — BindingDB's records for doi:10.1021/cb900218c (Case Western Reserve University, 2010)
